In patent publication US20110039721A1, “METHOD FOR PREDICTION ABOUT CARCINOGENICITY OF SUBSTANCE IN RODENT” (Chemicals Evaluation and Research Institute, priority 2007, published 2011):

Key:
rodent = conditions: in vivo; cited from earlier work
[1] = tested on: mRNA expressed from the genes (A) to (D) in rat liver; assay: Behavior of genes (mRNA expression level, oligo-DNA microarray) in rat liver after 28-day oral administration; type: in vivo
Procedure, shortened: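 Male F344 SPF rats, 5 weeks old, four per group, received carcinogens, non-carcinogens or solvent vehicle by oral gavage once daily for 28 days. Liver total RNA was then extracted. Changes of ≥1.5-fold or ≤1/1.5 versus vehicle control, in a consistent direction across carcinogens, counted as significant.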

liver = conditions: in vivo; cited from earlier work
[2] = gene group (A), Unigene No. Rn.167075, mRNA vs vehicle control group
[3] = gene group (C), Unigene No. Rn.120914, mRNA vs vehicle control group
[4] = (C), Unigene Rn.120914, defined direction +, rat liver, oral once daily 28 days

## CCCCC(CC)COC(=O)c1ccccc1C(=O)OCC(CC)CCCC (stereo not shown) [TS002, Di(2-ethylhexyl)phthalate]
rodent
  Carcinogenicity: C+
[1]; gene group (A), Unigene No. Rn.144554, mRNA vs vehicle control group
  Behavior of gene caused by administration of chemical substance, Gene No. 4846: −
[1]; [2]
  Behavior of gene caused by administration of chemical substance, Gene No. 2026: +
  Behavior of gene caused by administration of chemical substance, Gene No. 4218: −
[1]; gene group (A), Unigene No. Rn.5834, mRNA vs vehicle control group
  Behavior of gene caused by administration of chemical substance, Gene No. 6182: −
[1]; gene group (A), Unigene No. Rn.9836, mRNA vs vehicle control group
  Behavior of gene caused by administration of chemical substance, Gene No. 5600: −
[1]; gene group (B), Unigene No. Rn.1430, mRNA vs vehicle control group
  Behavior of gene caused by administration of chemical substance, Gene No. 1494: +
[1]; gene group (B), Unigene No. Rn.19329, mRNA vs vehicle control group
  Behavior of gene caused by administration of chemical substance, Gene No. 2045: +
[1]; gene group (B), Unigene No. Rn.21240, mRNA vs vehicle control group
  Behavior of gene caused by administration of chemical substance, Gene No. 2203: +
[1]; gene group (C), Unigene No. Rn.106184, mRNA vs vehicle control group
  Behavior of gene caused by administration of chemical substance, Gene No. 533: +
[1]; gene group (C), Unigene No. Rn.108075, mRNA vs vehicle control group
  Behavior of gene caused by administration of chemical substance, Gene No. 725: +
[1]; gene group (C), Unigene No. Rn.11766, mRNA vs vehicle control group
  Behavior of gene caused by administration of chemical substance, Gene No. 1163: −
[1]; gene group (C), Unigene No. Rn.118529, mRNA vs vehicle control group
  Behavior of gene caused by administration of chemical substance, Gene No. 4973: +
[1]; gene group (C), Unigene No. Rn.119024, mRNA vs vehicle control group
  Behavior of gene caused by administration of chemical substance, Gene No. 4095: +
[1]; [3]
  Behavior of gene caused by administration of chemical substance, Gene No. 1334: −
  Behavior of gene caused by administration of chemical substance, Gene No. 6620: −
[1]; gene group (C), Unigene No. Rn.123063, mRNA vs vehicle control group
  Behavior of gene caused by administration of chemical substance, Gene No. 6303: −
[1]; gene group (C), Unigene No. Rn.143213, mRNA vs vehicle control group
  Behavior of gene caused by administration of chemical substance, Gene No. 5878: −
[1]; gene group (C), Unigene No. Rn.144946, mRNA vs vehicle control group
  Behavior of gene caused by administration of chemical substance, Gene No. 1131: +
[1]; gene group (C), Unigene No. Rn.14744, mRNA vs vehicle control group
  Behavior of gene caused by administration of chemical substance, Gene No. 1562: −
[1]; gene group (C), Unigene No. Rn.1647, mRNA vs vehicle control group
  Behavior of gene caused by administration of chemical substance, Gene No. 1741: −
[1]; gene group (C), Unigene No. Rn.164817, mRNA vs vehicle control group
  Behavior of gene caused by administration of chemical substance, Gene No. 893: −
[1]; gene group (C), Unigene No. Rn.167685, mRNA vs vehicle control group
  Behavior of gene caused by administration of chemical substance, Gene No. 6026: −
[1]; gene group (C), Unigene No. Rn.185941, mRNA vs vehicle control group
  Behavior of gene caused by administration of chemical substance, Gene No. 154: −
[1]; gene group (C), Unigene No. Rn.18728, mRNA vs vehicle control group
  Behavior of gene caused by administration of chemical substance, Gene No. 1993: −
[1]; gene group (C), Unigene No. Rn.201760, mRNA vs vehicle control group
  Behavior of gene caused by administration of chemical substance, Gene No. 813: +
[1]; gene group (C), Unigene No. Rn.23969, mRNA vs vehicle control group
  Behavior of gene caused by administration of chemical substance, Gene No. 2494: −
[1]; gene group (C), Unigene No. Rn.24561, mRNA vs vehicle control group
  Behavior of gene caused by administration of chemical substance, Gene No. 2546: −
[1]; gene group (C), Unigene No. Rn.43232, mRNA vs vehicle control group
  Behavior of gene caused by administration of chemical substance, Gene No. 3776: −
[1]; gene group (C), Unigene No. Rn.4620, mRNA vs vehicle control group
  Behavior of gene caused by administration of chemical substance, Gene No. 3929: −
[1]; gene group (C), Unigene No. Rn.9757, mRNA vs vehicle control group
  Behavior of gene caused by administration of chemical substance, Gene No. 1119: −
[1]; gene group (C), Unigene No. Rn.9779, mRNA vs vehicle control group
  Behavior of gene caused by administration of chemical substance, Gene No. 6742: +
[1]; gene group (C), Unigene No. Rn.9862, mRNA vs vehicle control group
  Behavior of gene caused by administration of chemical substance, Gene No. 5634: −
[1]; gene group (D), Unigene No. Rn.9939, mRNA vs vehicle control group
  Behavior of gene caused by administration of chemical substance, Gene No. 5726: −
liver
  Liver carcinogenicity: Cr+

## Cc1ccc(N)cc1N [TS004, 2,4-Diaminotoluene]
rodent
  Carcinogenicity: C+
[1]; (A), Unigene Rn.144554, defined direction +, rat liver, oral once daily 28 days
  Behavior of gene caused by administration of chemical substance, Gene No. 4846: +
[1]; (A), Unigene Rn.167075, defined direction +, rat liver, oral once daily 28 days, significant = 1.5 times or more or 1/1.5 or less of control
  Behavior of gene caused by administration of chemical substance, Gene No. 4218: +
[1]; (A), Unigene Rn.167075, defined direction −, rat liver, oral once daily 28 days
  Behavior of gene caused by administration of chemical substance, Gene No. 2026: +
[1]; (A), Unigene Rn.5834, defined direction +, rat liver, oral once daily 28 days
  Behavior of gene caused by administration of chemical substance, Gene No. 6182: +
[1]; (A), Unigene Rn.9836, defined direction +, rat liver, oral once daily 28 days
  Behavior of gene caused by administration of chemical substance, Gene No. 5600: +
[1]; (B), Unigene Rn.1430, defined direction −, rat liver, oral once daily 28 days
  Behavior of gene caused by administration of chemical substance, Gene No. 1494: +
[1]; (B), Unigene Rn.19329, defined direction +, rat liver, oral once daily 28 days
  Behavior of gene caused by administration of chemical substance, Gene No. 2045: −
[1]; (B), Unigene Rn.21240, defined direction +, rat liver, oral once daily 28 days
  Behavior of gene caused by administration of chemical substance, Gene No. 2203: −
[1]; (C), Unigene Rn.106184, defined direction +, rat liver, oral once daily 28 days
  Behavior of gene caused by administration of chemical substance, Gene No. 533: −
[1]; (C), Unigene Rn.108075, defined direction −, rat liver, oral once daily 28 days
  Behavior of gene caused by administration of chemical substance, Gene No. 725: +
[1]; (C), Unigene Rn.11766, defined direction +, rat liver, oral once daily 28 days
  Behavior of gene caused by administration of chemical substance, Gene No. 1163: −
[1]; (C), Unigene Rn.118529, defined direction −, rat liver, oral once daily 28 days
  Behavior of gene caused by administration of chemical substance, Gene No. 4973: −
[1]; (C), Unigene Rn.119024, defined direction −, rat liver, oral once daily 28 days
  Behavior of gene caused by administration of chemical substance, Gene No. 4095: −
[1]; [4]
  Behavior of gene caused by administration of chemical substance, Gene No. 1334: −
  Behavior of gene caused by administration of chemical substance, Gene No. 6620: −
[1]; (C), Unigene Rn.123063, defined direction −, rat liver, oral once daily 28 days
  Behavior of gene caused by administration of chemical substance, Gene No. 6303: −
[1]; (C), Unigene Rn.143213, defined direction −, rat liver, oral once daily 28 days
  Behavior of gene caused by administration of chemical substance, Gene No. 5878: −
[1]; (C), Unigene Rn.144946, defined direction −, rat liver, oral once daily 28 days
  Behavior of gene caused by administration of chemical substance, Gene No. 1131: −
[1]; (C), Unigene Rn.14744, defined direction −, rat liver, oral once daily 28 days
  Behavior of gene caused by administration of chemical substance, Gene No. 1562: −
[1]; (C), Unigene Rn.1647, defined direction −, rat liver, oral once daily 28 days
  Behavior of gene caused by administration of chemical substance, Gene No. 1741: −
[1]; (C), Unigene Rn.164817, defined direction +, rat liver, oral once daily 28 days
  Behavior of gene caused by administration of chemical substance, Gene No. 893: −
[1]; (C), Unigene Rn.167685, defined direction −, rat liver, oral once daily 28 days
  Behavior of gene caused by administration of chemical substance, Gene No. 6026: −
[1]; (C), Unigene Rn.185941, defined direction −, rat liver, oral once daily 28 days
  Behavior of gene caused by administration of chemical substance, Gene No. 154: −
[1]; (C), Unigene Rn.18728, defined direction −, rat liver, oral once daily 28 days
  Behavior of gene caused by administration of chemical substance, Gene No. 1993: −
[1]; (C), Unigene Rn.201760, defined direction +, rat liver, oral once daily 28 days
  Behavior of gene caused by administration of chemical substance, Gene No. 813: −
[1]; (C), Unigene Rn.23969, defined direction +, rat liver, oral once daily 28 days
  Behavior of gene caused by administration of chemical substance, Gene No. 2494: −
[1]; (C), Unigene Rn.24561, defined direction −, rat liver, oral once daily 28 days
  Behavior of gene caused by administration of chemical substance, Gene No. 2546: −
[1]; (C), Unigene Rn.43232, defined direction −, rat liver, oral once daily 28 days
  Behavior of gene caused by administration of chemical substance, Gene No. 3776: −
[1]; (C), Unigene Rn.4620, defined direction +, rat liver, oral once daily 28 days
  Behavior of gene caused by administration of chemical substance, Gene No. 3929: −
[1]; (C), Unigene Rn.9757, defined direction +, rat liver, oral once daily 28 days
  Behavior of gene caused by administration of chemical substance, Gene No. 1119: −
[1]; (C), Unigene Rn.9779, defined direction +, rat liver, oral once daily 28 days
  Behavior of gene caused by administration of chemical substance, Gene No. 6742: −
[1]; (C), Unigene Rn.9862, defined direction −, rat liver, oral once daily 28 days
  Behavior of gene caused by administration of chemical substance, Gene No. 5634: −
[1]; (D), Unigene Rn.9939, defined direction −, rat liver, oral once daily 28 days
  Behavior of gene caused by administration of chemical substance, Gene No. 5726: −
liver
  Liver carcinogenicity: Cr+
